Laboratory results reported in ChEMBL document CHEMBL3885881, “DrugMatrix”.

Organism: Rattus norvegicus
Test: DrugMatrix - Regimen: Daily Repeat
Assay type: toxicity, organism-based, Sprague-Dawley
Parameters: regimen Daily Repeat, gender Male, age 6-8 weeks
Conditions: in vivo, po, route oral GAVAGE, vehicle .5 % CMC; for TOTAL PROTEIN / ALANINE AMINOTRANSFERASE / ALBUMIN / ALKALINE PHOSPHATASE / ASPARTATE AMINOTRANSFERASE / BLOOD UREA NITROGEN / CARBON DIOXIDE / CHLORIDE / CHOLESTEROL / CREATINE PHOSPHOKINASE / CREATININE / GLUCOSE / LACTATE DEHYDROGENASE / LIPASE / POTASSIUM / SODIUM / TOTAL BILIRUBIN: tissue Plasma; for ABSOLUTE BASOPHIL / ABSOLUTE EOSINOPHIL / ABSOLUTE LYMPHOCYTE / ABSOLUTE MONOCYTE / ABSOLUTE SEGMENTED NEUTROPHIL / BASOPHIL / EOSINOPHIL / ERYTHROCYTE COUNT / HEMATOCRIT / HEMOGLOBIN / LEUKOCYTE COUNT / LYMPHOCYTE / MEAN CORPUSCULAR HEMOGLOBIN / MEAN CORPUSCULAR HEMOGLOBIN CONCENTRATION / MEAN CORPUSCULAR VOLUME / MONOCYTE / NEUTROPHIL / NUCLEATED RED BLOOD CELLS / PLATELET COUNT: tissue Blood
[1] = 150 mg/kg, 120 h, dose level Low, time 5 day
[2] = 2000 mg/kg, 72 h, dose level High, time 3 day
[3] = 2000 mg/kg, 120 h, dose level High, time 5 day

Structure (SMILES): C[C@@H]1CC[C@H]2[C@@H](C)C(=O)O[C@@H]3O[C@@]4(C)CC[C@@H]1[C@]32OO4 [ARTEMISININ]
- TOTAL PROTEIN (150 mg/kg, 72 h, dose level Low, time 3 day): 6.7 G/DL
- ABSOLUTE BASOPHIL [1]: 0 CELLS/uL
- ABSOLUTE EOSINOPHIL [1]: 0 CELLS/uL
- ABSOLUTE LYMPHOCYTE [1]: 11615.67 CELLS/uL
- ABSOLUTE MONOCYTE [1]: 298.33 CELLS/uL
- ABSOLUTE SEGMENTED NEUTROPHIL [1]: 986 CELLS/uL
- BASOPHIL [1]: 0%
- EOSINOPHIL [1]: 0%
- ERYTHROCYTE COUNT [1]: 5.22 x10E6/uL
- HEMATOCRIT [1]: 33.07%
- HEMOGLOBIN [1]: 12.77 G/DL
- LEUKOCYTE COUNT [1]: 12.9 x10E3/uL
- LYMPHOCYTE [1]: 90%
- MEAN CORPUSCULAR HEMOGLOBIN [1]: 24.43 pg
- MEAN CORPUSCULAR HEMOGLOBIN CONCENTRATION [1]: 38.63 G/DL
- MEAN CORPUSCULAR VOLUME [1]: 63.33 fL
- MONOCYTE [1]: 2.33%
- NEUTROPHIL [1]: 7.67%
- NUCLEATED RED BLOOD CELLS [1]: 0 /100WBC
- PLATELET COUNT [1]: 1315 x10E3/uL
- ALANINE AMINOTRANSFERASE [1]: 48.67 u/L
- ALBUMIN [1]: 3.93 G/DL
- ALKALINE PHOSPHATASE [1]: 408.33 u/L
- ASPARTATE AMINOTRANSFERASE [1]: 87.67 u/L
- BLOOD UREA NITROGEN [1]: 18 mg/dL
- CARBON DIOXIDE [1]: 27 mmol/L
- CHLORIDE [1]: 101 MEQ/L
- CHOLESTEROL [1]: 71.67 mg/dL
- CREATINE PHOSPHOKINASE [1]: 464 u/L
- CREATININE [1]: 0.19 mg/dL
- GLUCOSE [1]: 139.33 mg/dL
- LACTATE DEHYDROGENASE [1]: 476 u/L
- LIPASE [1]: 10 u/L
- POTASSIUM [1]: 6.65 MEQ/L
- SODIUM [1]: 141.93 MEQ/L
- TOTAL BILIRUBIN [1]: 0.2 mg/dL
- TOTAL PROTEIN [1]: 5.93 G/DL
- ABSOLUTE BASOPHIL [2]: 0 CELLS/uL
- ABSOLUTE EOSINOPHIL [2]: 274 CELLS/uL
- ABSOLUTE LYMPHOCYTE [2]: 15228 CELLS/uL
- ABSOLUTE MONOCYTE [2]: 318.67 CELLS/uL
- BASOPHIL [2]: 0%
- EOSINOPHIL [2]: 1.67%
- ERYTHROCYTE COUNT [2]: 5.42 x10E6/uL
- HEMATOCRIT [2]: 33.43%
- HEMOGLOBIN [2]: 13.03 G/DL
- LEUKOCYTE COUNT [2]: 16.97 x10E3/uL
- LYMPHOCYTE [2]: 89%
- MEAN CORPUSCULAR HEMOGLOBIN [2]: 24.07 pg
- MEAN CORPUSCULAR HEMOGLOBIN CONCENTRATION [2]: 39 G/DL
- MEAN CORPUSCULAR VOLUME [2]: 61.67 fL
- MONOCYTE [2]: 2%
- NEUTROPHIL [2]: 7.33%
- NUCLEATED RED BLOOD CELLS [2]: 0 /100WBC
- PLATELET COUNT [2]: 1460 x10E3/uL
- ALANINE AMINOTRANSFERASE [2]: 59.67 u/L
- ALBUMIN [2]: 4 G/DL
- ALKALINE PHOSPHATASE [2]: 390 u/L
- ASPARTATE AMINOTRANSFERASE [2]: 112.33 u/L
- BLOOD UREA NITROGEN [2]: 19.67 mg/dL
- CARBON DIOXIDE [2]: 23.67 mmol/L
- CHLORIDE [2]: 101.67 MEQ/L
- CHOLESTEROL [2]: 97.67 mg/dL
- CREATINE PHOSPHOKINASE [2]: 581.33 u/L
- CREATININE [2]: 0.25 mg/dL
- GLUCOSE [2]: 144.33 mg/dL
- LACTATE DEHYDROGENASE [2]: 387.67 u/L
- LIPASE [2]: 12.33 u/L
- POTASSIUM [2]: 6.36 MEQ/L
- SODIUM [2]: 142.67 MEQ/L
- TOTAL BILIRUBIN [2]: 0.2 mg/dL
- TOTAL PROTEIN [2]: 6 G/DL
- ABSOLUTE BASOPHIL [3]: 0 CELLS/uL
- ABSOLUTE EOSINOPHIL [3]: 156.67 CELLS/uL
- ABSOLUTE LYMPHOCYTE [3]: 13145.33 CELLS/uL
- ABSOLUTE MONOCYTE [3]: 96 CELLS/uL
- ABSOLUTE SEGMENTED NEUTROPHIL [3]: 868.67 CELLS/uL
- BASOPHIL [3]: 0%
- EOSINOPHIL [3]: 1%
- ERYTHROCYTE COUNT [3]: 5.52 x10E6/uL
- HEMATOCRIT [3]: 33.57%
- HEMOGLOBIN [3]: 13.27 G/DL
- LEUKOCYTE COUNT [3]: 14.27 x10E3/uL
- LYMPHOCYTE [3]: 92%
- MEAN CORPUSCULAR HEMOGLOBIN [3]: 24.07 pg
- MEAN CORPUSCULAR HEMOGLOBIN CONCENTRATION [3]: 39.53 G/DL
- MEAN CORPUSCULAR VOLUME [3]: 60.87 fL
- MONOCYTE [3]: 0.67%
- NEUTROPHIL [3]: 6.33%
- NUCLEATED RED BLOOD CELLS [3]: 0.33 /100WBC
- PLATELET COUNT [3]: 1230 x10E3/uL
- ALANINE AMINOTRANSFERASE [3]: 52.67 u/L
- ALBUMIN [3]: 4.1 G/DL
- ALKALINE PHOSPHATASE [3]: 299.67 u/L
- ASPARTATE AMINOTRANSFERASE [3]: 83.33 u/L
- BLOOD UREA NITROGEN [3]: 19.33 mg/dL
- CARBON DIOXIDE [3]: 28.67 mmol/L
- CHLORIDE [3]: 104 MEQ/L
- CHOLESTEROL [3]: 75.33 mg/dL
- CREATINE PHOSPHOKINASE [3]: 308.33 u/L
- CREATININE [3]: 0.23 mg/dL
- GLUCOSE [3]: 133 mg/dL
- LACTATE DEHYDROGENASE [3]: 153.67 u/L
- LIPASE [3]: 10.33 u/L
- POTASSIUM [3]: 6.54 MEQ/L
- SODIUM [3]: 147.4 MEQ/L
- TOTAL BILIRUBIN [3]: 0.17 mg/dL
- TOTAL PROTEIN [3]: 6.1 G/DL
